The values below come from patent US10358446B2, “Bruton's tyrosine kinase inhibitors” (Zibo Biopolar Changsheng Pharmaceutical Co. Ltd., priority 2015, dated 2019).

The structures appear in SMILES notation. Like-named read-outs stand apart in the source and are kept apart here.

Experiment [1] has as its target T1, BTK (Homo sapiens (Human), UniProt Q06187). Description: Btk kinase assay (HTRF). In kind it is biochemical. The note with it: [ATP]=80 μM, BTK=3.4 nM. The method, boiled down:
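BTK (3.4 nM) incubated 1 h with inhibitor, 80 μM ATP and 1 μM peptide substrate in 50 mM HEPES pH 7.0 with BSA and orthovanadate. Reaction stopped with EDTA plus Eu-antibody/XL665; HTRF 665/615 ratio read after 1 h, IC50 calculated relative to no-inhibitor and no-enzyme controls.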
Target sequence in this assay (Q06187 whole entry, species assumed): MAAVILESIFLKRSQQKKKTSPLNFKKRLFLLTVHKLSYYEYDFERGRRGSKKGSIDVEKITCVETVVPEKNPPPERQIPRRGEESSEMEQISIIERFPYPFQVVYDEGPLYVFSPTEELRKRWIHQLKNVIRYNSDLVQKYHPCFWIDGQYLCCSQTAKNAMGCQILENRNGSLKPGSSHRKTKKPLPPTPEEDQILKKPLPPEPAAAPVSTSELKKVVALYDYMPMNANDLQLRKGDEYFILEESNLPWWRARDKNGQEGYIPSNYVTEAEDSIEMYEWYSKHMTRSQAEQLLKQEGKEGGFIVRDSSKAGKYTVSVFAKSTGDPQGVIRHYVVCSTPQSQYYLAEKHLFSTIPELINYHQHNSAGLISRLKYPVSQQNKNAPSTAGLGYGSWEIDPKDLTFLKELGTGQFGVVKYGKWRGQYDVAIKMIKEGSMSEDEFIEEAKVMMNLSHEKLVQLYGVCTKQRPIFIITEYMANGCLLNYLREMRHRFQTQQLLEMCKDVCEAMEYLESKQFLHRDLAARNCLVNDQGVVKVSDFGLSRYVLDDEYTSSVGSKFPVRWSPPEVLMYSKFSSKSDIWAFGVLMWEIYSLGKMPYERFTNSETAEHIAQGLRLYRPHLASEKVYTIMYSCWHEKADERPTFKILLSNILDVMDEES
For orientation: TR-FRET usually uses a lanthanide donor and a delayed reading to cut background.

The target in the next experiment is LYN (Homo sapiens (Human), UniProt P07948). The experiment is described as follows: LYN kinase assay (HTRF). Format: biochemical. As to conditions: [ATP]=20 μM, LYN=0.12 nM.
Chain of LYN (P07948 whole entry, species assumed): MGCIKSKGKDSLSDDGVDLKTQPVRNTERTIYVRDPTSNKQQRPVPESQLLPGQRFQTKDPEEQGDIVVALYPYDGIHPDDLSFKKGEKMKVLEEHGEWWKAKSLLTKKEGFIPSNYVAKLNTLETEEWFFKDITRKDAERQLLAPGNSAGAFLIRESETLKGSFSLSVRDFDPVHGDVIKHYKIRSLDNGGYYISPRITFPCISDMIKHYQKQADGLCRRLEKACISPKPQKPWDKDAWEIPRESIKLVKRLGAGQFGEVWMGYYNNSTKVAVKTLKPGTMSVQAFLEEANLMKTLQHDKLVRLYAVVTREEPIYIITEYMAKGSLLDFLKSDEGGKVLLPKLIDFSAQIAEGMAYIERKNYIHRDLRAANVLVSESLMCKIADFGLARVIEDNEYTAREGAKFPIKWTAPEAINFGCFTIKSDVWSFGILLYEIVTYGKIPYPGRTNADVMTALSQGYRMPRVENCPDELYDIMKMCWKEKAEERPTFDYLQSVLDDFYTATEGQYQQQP
A further experiment addresses LCK (Homo sapiens (Human), UniProt P06239). The experiment is described as follows: LCK kinase assay (HTRF). Format: biochemical. The note with it: [ATP]=20 μM, LCK=0.2 nM.
A further experiment has as its system Ramos cells. The experiment is described as follows: Calcium flux assay, IgM-induced calcium influx in Ramos cells. In kind it is cell-based. As to conditions: Ramos cells stimulated with goat anti-human IgM antibody 10 μg/ml; read-out: Ramos Ca Flux. As to the method: Calcium flux fluorescence-based assays were performed in aFDSS7000EX (Hamamatsu Photonics) fluorometric imaging plate reader according to manufacturer instructions. Compounds to be assayed were dissolved in DMSO, diluted to appropriate concentrations in Ca^2+ buffer ranging from 0 to 10 μM (at a dilution factor of 0.1), added 5 μl (6×) to each well (the final DMSO concentration was 0.1% in each well). Then 12.5 μL 2× dye loading solution (Fluo-4 NW Calcium Assay Kits, Invitrogen) was added per well of a 384-well plate. Afterwards, actively growing Ramos cells (ATCC) in RPM1640 medium supplemented with 10% FBS (Invitrogen) were washed and re-plated in assay buffer (from Fluo-4 NW Calcium Assay Kits, Invitrogen) to approximately 6.4×10^6/ml (80000 cells/12.5 μL in 384-well plates). […] The plates were now ready to be used in an experiment Immediately after the transfer and a 10-s recording of baseline fluorescence, the compound treated cells were stimulated with a goat anti-human IgM antibody (10 μg/ml; Jackson Immuno Research) and read in a FDSS for 240 seconds. Difference between the signal and that at baseline, designated adjusted relative fluorescence unit, was calculated by using a custom Excel (Microsoft, Redmond, Wash.) template to determine IgM-induced calcium influx and its inhibition by compounds. […]
(In general: Calcium flux is commonly read through the fluorescence of an indicator in the cells.)

Experiment [2] deals with T1, BTK. Description: Btk occupancy in cellular assays (PCI-33380 labeling, Jeko-1 cells). In kind it is cell-based. The note with it: 100 nM compound, 1.5 h pre-incubation, PCI-33380 probe. As to the method:
For PCI-33380 labeling of human B cells, 10^6 Jeko-1 cells were pre-incubated with compound for 1.5 h before labeling. Then cells were treated with PCI-33380 at 5 μM for 1 h. Washed, lysed in Ripa buffer containing sample reducing agent, and analyzed by SDS/PAGE and fluorescent gel scanning using a Typhoon scanner 9500 (GE Healthcare) (Ex, 532 nm; Em, 555 nm). The gel was then blotted and total Btk levels detected by standard Western blot with Btk antibody (CST).
Target sequence in this assay (Q06187 whole entry): as the sequence (Q06187 whole entry, species assumed) above

Experiment [3] concerns the target Btk (Mus musculus (Mouse), UniProt P35991). The experiment is described as follows: Btk occupancy in vivo (PBMCs or splenocytes, PCI-33380 labeling). On the set-up: species or system Babc/L mice. The note with it: 25 mg/kg single oral dose, Balb/c mice, after 4 hours. The protocol: For analysis of Btk occupancy in Babc/L mice following oral dosing of compounds after 4 hours. Isolating peripheral blood mononuclear cells (PBMCs) with mouse peripheral blood separation kit (Hao Yang Biological Manufacture CO., LTD, Tianjin) were collected from Babc/L mice (1 ml blood from two mice). Spleens were processed to splenocytes followed by 5 min incubation in red blood cell lysing buffer (from mouse peripheral blood separation kit). PBMCs or splenocytes were then PCI-33380-labeled and lysates analyzed by fluorescent gel scanning as described in cellular assays.

Chain of LCK (P06239 whole entry, species assumed): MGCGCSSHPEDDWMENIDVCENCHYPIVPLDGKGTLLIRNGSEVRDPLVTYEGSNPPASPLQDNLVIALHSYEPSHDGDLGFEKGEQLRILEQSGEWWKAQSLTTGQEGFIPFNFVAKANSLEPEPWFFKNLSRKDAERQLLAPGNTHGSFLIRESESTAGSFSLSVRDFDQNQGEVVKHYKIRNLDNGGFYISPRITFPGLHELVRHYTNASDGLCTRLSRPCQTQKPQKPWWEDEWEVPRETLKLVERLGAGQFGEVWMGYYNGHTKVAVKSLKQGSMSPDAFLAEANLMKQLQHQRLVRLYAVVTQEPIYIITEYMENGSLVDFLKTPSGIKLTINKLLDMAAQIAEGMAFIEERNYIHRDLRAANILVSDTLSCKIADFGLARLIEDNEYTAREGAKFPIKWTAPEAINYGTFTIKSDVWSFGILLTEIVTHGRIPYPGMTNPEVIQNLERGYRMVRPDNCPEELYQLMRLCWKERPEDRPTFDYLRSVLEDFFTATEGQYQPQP
Chain of Btk (P35991 whole entry): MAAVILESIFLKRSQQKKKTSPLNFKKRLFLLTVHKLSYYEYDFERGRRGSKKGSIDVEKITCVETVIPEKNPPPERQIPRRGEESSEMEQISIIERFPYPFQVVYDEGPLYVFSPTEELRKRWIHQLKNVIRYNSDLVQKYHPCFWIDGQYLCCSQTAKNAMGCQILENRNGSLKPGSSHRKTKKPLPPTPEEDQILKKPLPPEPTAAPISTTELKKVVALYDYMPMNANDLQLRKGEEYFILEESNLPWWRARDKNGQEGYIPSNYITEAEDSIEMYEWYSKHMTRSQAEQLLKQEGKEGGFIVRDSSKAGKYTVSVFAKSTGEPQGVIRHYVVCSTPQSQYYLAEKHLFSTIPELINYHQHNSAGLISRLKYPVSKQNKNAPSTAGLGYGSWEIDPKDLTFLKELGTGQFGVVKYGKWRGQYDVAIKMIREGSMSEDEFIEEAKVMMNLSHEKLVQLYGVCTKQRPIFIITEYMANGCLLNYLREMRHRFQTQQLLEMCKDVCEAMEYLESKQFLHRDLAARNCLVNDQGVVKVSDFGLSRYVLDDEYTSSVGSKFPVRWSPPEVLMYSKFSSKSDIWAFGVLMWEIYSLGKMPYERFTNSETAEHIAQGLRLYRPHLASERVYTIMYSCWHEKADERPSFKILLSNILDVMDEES

For `C=CC(=O)N1CC[C@@H](n2c(=O)n(-c3ccc(Oc4ccccc4)c(Cl)c3)c3cnccc32)C1` [Example 5, (R)-1-(1-acryloylpyrrolidin-3-yl)-3-(3-chloro-4-phenoxyphenyl)-1H-imidazo[4,5-c]pyridin-2(3H)-one], the IC50 is ≤ 0.01 µM at BTK [1] (Table 2, read-out: BTK IC50); ≤ 0.01 µM at BTK [1] (read-out: BTK Inhibition); ≥ 10 µM on LYN; ≥ 10 µM on LCK; 0.01 to 0.1 µM with Ramos cells. The “occupancy of the active site of Btk” value on BTK [2] is on record as “fully occupy”. Further, on Btk [3], the “Btk occupancy in vivo” value was “full occupancy”.
For `C=CC(=O)N1CC[C@@H](n2c(=O)n(-c3ccc(Oc4cccc(C)c4)cc3)c3cnccc32)C1` [Example 4, (R)-1-(1-acryloylpyrrolidin-3-yl)-3-(4-(m-tolyloxy)phenyl)-1H-imidazo[4,5-c]pyridin-2(3H)-one], the IC50 was ≤ 0.01 µM at BTK [1] (Table 2, read-out: BTK IC50); ≤ 0.01 µM on BTK [1] (read-out: BTK Inhibition); 1 to 10 µM against LYN; 1 to 10 µM on LCK; 0.01 to 0.1 µM with Ramos cells. Moreover, the “occupancy of the active site of Btk” value at BTK [2] is reported as “fully occupy”.
